Structures can show the parent of a compound that is named as a salt. Each block holds one compound with its values, some of them ahead of it.
Columns and labels:
[1] = tested on: H3K9me2 in MDA-MB-231 cells; assay: MDA-MB-231 H3K9me2 in-cell western assay; type: cell-based; conditions: Homo sapiens, read-out: EHMT2 ICW (IC50 μM)
Text: MDA-MB-231 cell line was purchased from ATCC (Manassas, Va., USA). RPMI/Glutamax medium, Penicillin-Streptomycin, Heat Inactivated Fetal Bovine Serum, and D-PBS were purchased from Life Technologies (Grand Island, N.Y., USA). Odyssey blocking buffer, 800CW goat anti-mouse IgG (H+L) antibody, and Licor Odyssey Infrared Scanner were purchased from Licor Biosciences, Lincoln, Nebr., USA. H3K9me2 mouse monoclonal antibody (Cat #1220) was purchased from Abcam (Cambridge, Mass., USA). 16% Paraformaldehyde was purchased from Electron Microscopy Sciences, Hatfield, Pa., USA). MDA-MB-231 cells were maintained in complete growth medium (RPMI supplemented with 10% v/v heat inactivated fetal bovine serum) and cultured at 37° C. under 5% CO2. UNC0638 was purchased from Sigma-Aldrich (St. Louis, Mo., USA).
General Procedure for MDA-MB-231 HEK9me2 In-Cell Western Assay.
Compound (100 nL) was added directly to 384-well cell plate. MDA-MB-231 cells (ATCC) were seeded in assay medium (RPMI/Glutamax supplemented with 10% v/v heat inactivated fetal bovine serum and 1% Penicillin/Streptomycin, Life Technologies) at a concentration of 3,000 cells per well to a Poly-D-Lysine coated 384-well cell culture plate with 50 μL per well. Plates were incubated at 37° C., 5% CO2 for 48 hours (BD Biosciences 356697). Plates were incubated at room temperature for 30 minutes and then incubated at 37° C., 5% CO2 for additional 48 hours. After the incubation, 50 μL per well of 8% paraformaldehyde (Electron Microscopy Sciences) in PBS was added to the plates and incubated at room temperature for 20 minutes. Plates were transferred to a Biotek 406 plate washer and washed 2 times with 100 μL per well of wash buffer (1×PBS containing 0.3% Triton X-100 (v/v)). Next, 60 μL per well of Odyssey blocking buffer (Licor Biosciences) was added to each plate and incubated for 1 hour at room temperature. Blocking buffer was removed and 20 μL of monoclonal primary antibody α-H3K9me2 (Abcam) diluted 1:800 in Odyssey buffer with 0.1% Tween 20 (v/v) were added and plates were incubated overnight (16 hours) at 4° C. Plates were washed 5 times with 100 μL per well of wash buffer. Next 20 μL per well of secondary antibody was added (1:500 800CW […] anti-mouse IgG (H+L) antibody (Licor Biosciences), 1:1000 DRAQ5 (Cell Signaling Technology) in Odyssey buffer with 0.1% Tween 20 (v/v)) and incubated for 1 hour at room temperature. The plates were washed 5 times with 100 μL per well wash buffer then 2 times with 100 μL per well of water. Plates were allowed to dry at room temperature then imaged on a Licor Odyssey Infrared Scanner (Licor Biosciences) which measured integrated intensity at 700 nm and 800 nm wavelengths. Both 700 and 800 channels were scanned.
% Inhibition Calculation.
First, the ratio for each well was determined by
Each plate included fourteen control wells of DMSO only treatment (Minimum Inhibition) as well as fourteen control wells (background wells) for maximum inhibition treated with control compound UNC0638 (Background wells).
The average of the ratio values for each well was calculated and used to determine the percent inhibition for each test well in the plate. Control compound was serially diluted three-fold in DMSO for a total of 10 test concentrations beginning at 1 μM. Percent inhibition was calculated as: […]
IC50 curves were generated using triplicate wells per concentration of compound. The IC50 is the concentration of compound at which measured methylation is inhibited by 50% as interpolated from the dose response curves. IC50 values were calculated using a non-linear regression (variable slope-four parameter fit model) with by the following formula
where Top is fixed at 100% and Bottom is fixed to 0%, [I]=concentration of inhibitor, IC50=half maximal inhibitory concentration and n=Hill Slope.

EHMT1 = target: T1, EHMT1 (Homo sapiens, UniProt Q9H9B1); assay: EHMT1 PEP (EHMT1 peptide enzyme assay); type: biochemical; conditions: peptide substrate enzyme assay
T1 sequence (Q9H9B1 1-1298): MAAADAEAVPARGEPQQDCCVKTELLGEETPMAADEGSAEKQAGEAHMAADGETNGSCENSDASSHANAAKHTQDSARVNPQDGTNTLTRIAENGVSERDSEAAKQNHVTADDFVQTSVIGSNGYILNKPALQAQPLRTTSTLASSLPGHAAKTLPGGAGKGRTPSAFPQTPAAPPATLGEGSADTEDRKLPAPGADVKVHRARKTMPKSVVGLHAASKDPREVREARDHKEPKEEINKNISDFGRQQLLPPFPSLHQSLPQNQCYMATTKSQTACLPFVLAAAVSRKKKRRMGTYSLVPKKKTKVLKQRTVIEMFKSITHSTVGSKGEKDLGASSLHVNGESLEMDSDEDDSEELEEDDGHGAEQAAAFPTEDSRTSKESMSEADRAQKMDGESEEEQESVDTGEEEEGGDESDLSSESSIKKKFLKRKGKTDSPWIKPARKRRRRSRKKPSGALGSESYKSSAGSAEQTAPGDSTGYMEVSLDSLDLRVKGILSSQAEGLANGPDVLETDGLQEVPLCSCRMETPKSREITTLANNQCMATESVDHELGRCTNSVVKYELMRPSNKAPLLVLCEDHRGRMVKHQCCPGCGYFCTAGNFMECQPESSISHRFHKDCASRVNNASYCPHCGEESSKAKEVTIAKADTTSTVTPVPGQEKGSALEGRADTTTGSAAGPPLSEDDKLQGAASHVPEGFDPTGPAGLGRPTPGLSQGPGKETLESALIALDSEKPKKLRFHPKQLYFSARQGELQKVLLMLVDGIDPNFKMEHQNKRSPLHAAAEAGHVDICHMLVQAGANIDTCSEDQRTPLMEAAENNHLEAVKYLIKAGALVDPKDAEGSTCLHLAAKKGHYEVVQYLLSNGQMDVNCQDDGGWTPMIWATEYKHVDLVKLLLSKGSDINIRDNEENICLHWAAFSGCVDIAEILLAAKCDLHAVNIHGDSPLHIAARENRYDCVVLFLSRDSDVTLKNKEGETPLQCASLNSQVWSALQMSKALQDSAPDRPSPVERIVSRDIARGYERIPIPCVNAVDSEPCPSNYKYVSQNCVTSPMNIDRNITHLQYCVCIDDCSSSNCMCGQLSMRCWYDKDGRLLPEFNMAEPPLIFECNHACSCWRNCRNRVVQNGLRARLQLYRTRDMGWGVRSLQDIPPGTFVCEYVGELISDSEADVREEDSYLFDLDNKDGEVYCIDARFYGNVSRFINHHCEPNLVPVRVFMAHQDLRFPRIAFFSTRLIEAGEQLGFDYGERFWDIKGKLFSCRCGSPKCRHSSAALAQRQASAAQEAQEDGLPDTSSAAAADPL

SMILES: CNc1cc(C)nc(Nc2ccc(OC)c(-c3cn4c(n3)CN(C)CC4)c2)n1 [Compound 6]
IC50 [1]: > 10 µM
IC50 (EHMT1): > 10 µM

SMILES: CNc1cc(C)nc(Nc2ccc(OC)c(-c3nc4n(n3)CCNC4)c2)n1 [Compound 8, 2-N-(4-methoxy-3-[4H,5H,6H,7H-[1,2,4]triazolo[1,5-a]pyrazin-2-yl]phenyl)-4-N,6-dimethylpyrimidine-2,4-diamine hydrochloride]
IC50 [1]: > 10 µM
IC50 (EHMT1): 1 to 10 µM

SMILES: CNc1cc(C)nc(Nc2ccc(OC)c(-c3nc4n(n3)CCN(C)C4)c2)n1 [Compound 9]
IC50 [1]: > 10 µM
IC50 (EHMT1): > 10 µM

SMILES: CNc1cc(C)nc(Nc2ccc(OC)c(-c3nnc(C)[nH]3)c2)n1 [Compound 11]
IC50 [1]: > 10 µM
IC50 (EHMT1): > 10 µM

SMILES: CNc1cc(C)nc(Nc2ccc(OC)c(-c3cn[nH]c3)c2)n1 [Compound 12, 2-N-[4-methoxy-3-(1H-pyrazol-4-yl)phenyl]-4-N,6-dimethylpyrimidine-2,4-diamine]
IC50 [1]: > 10 µM
IC50 (EHMT1): > 10 µM

SMILES: CNc1cc(C)nc(Nc2ccc(OC)c(-c3ccc4nc(C)[nH]c4c3)c2)n1 [Compound 155]
IC50 [1]: > 10 µM
IC50 (EHMT1): > 10 µM

SMILES: CNc1cc(C)nc(Nc2ccc(OC)c(-n3cc(C(NC)C(F)(F)F)nn3)c2)n1 (centres unmarked) [Compound 165]
IC50 [1]: > 10 µM
IC50 (EHMT1): > 10 µM

SMILES: CNc1cc(C)nc(Nc2ccc(OC)c(-n3cc(C(C)(C)NC)nn3)c2)n1 [Compound 166]
IC50 [1]: > 10 µM
IC50 (EHMT1): 1 to 10 µM

SMILES: CCNCc1cn(-c2cc(Nc3nccc(NC)n3)ccc2OC)nn1 [Compound 172]
IC50 [1]: 1 to 10 µM
IC50 (EHMT1): 0.1 to 1 µM

SMILES: CNc1ccnc(Nc2ccc(OC)c(-n3cc(CNCC4CC4)nn3)c2)n1 [Compound 173]
IC50 [1]: 1 to 10 µM
IC50 (EHMT1): < 0.1 µM

SMILES: CNc1ccnc(Nc2ccc(OC)c(-c3cc4[nH]ncc4cn3)c2)n1 [Compound 174]
IC50 [1]: 1 to 10 µM
IC50 (EHMT1): > 10 µM

SMILES: CNc1ccnc(Nc2ccc(OC)c(-n3cc(C4CC4)nn3)c2)n1 [Compound 176]
IC50 [1]: 1 to 10 µM
IC50 (EHMT1): 0.1 to 1 µM

SMILES: CNc1ccnc(Nc2ccc(OC)c(-n3cc(C4COC4)nn3)c2)n1 [Compound 177]
IC50 [1]: > 10 µM
IC50 (EHMT1): 1 to 10 µM

SMILES: CNc1ccnc(Nc2ccc(OC)c(-c3ccc4cc[nH]c4c3)c2)n1 [Compound 178]
IC50 [1]: > 10 µM
IC50 (EHMT1): > 10 µM

SMILES: CNCc1cnn(-c2cc3nc(NC)n(C)c3cc2OC)c1 [Compound 179]
IC50 [1]: 1 to 10 µM
IC50 (EHMT1): 0.1 to 1 µM

SMILES: CNCc1cnn(-c2cc3nc(NC)cc(C4CCOCC4)c3cc2OC)c1 [Compound 184]
IC50 [1]: 1 to 10 µM
IC50 (EHMT1): 0.1 to 1 µM

SMILES: CCNCc1cnn(-c2cc(Nc3nccc(NC)n3)ccc2OC)c1 [Compound 185]
IC50 [1]: 1 to 10 µM
IC50 (EHMT1): 0.1 to 1 µM

The next lines start with the values.

IC50 [1]: 1 to 10 µM
IC50 (EHMT1): 0.1 to 1 µM
SMILES: CNc1cc(C)nc(Nc2ccc(OC)c(-c3cn4c(n3)CNCC4)c2)n1 [Compound 7]

IC50 [1]: 0.1 to 1 µM
IC50 (EHMT1): 0.1 to 1 µM
SMILES: CNc1cc(C)nc(Nc2ccc(OC)c(-n3ncc4c3CCN(C)C4)c2)n1 [Compound 10]

IC50 [1]: 1 to 10 µM
IC50 (EHMT1): 0.1 to 1 µM
SMILES: CNc1cc(C)nc(Nc2ccc(OC)c(-n3cc4ccccc4n3)c2)n1 [Compound 146]

IC50 [1]: 1 to 10 µM
IC50 (EHMT1): 0.1 to 1 µM
SMILES: CNc1cc(C)nc(Nc2ccc(OC)c(-n3cc4cc(Br)ccc4n3)c2)n1 [Compound 148]

IC50 [1]: 0.1 to 1 µM
IC50 (EHMT1): 0.1 to 1 µM
SMILES: CNc1cc(C)nc(Nc2ccc(OC)c(-n3cc4cncc(C)c4n3)c2)n1 [Compound 151]

IC50 [1]: 1 to 10 µM
IC50 (EHMT1): > 10 µM
SMILES: CNc1cc(C)nc(Nc2ccc(OC)c(-c3ccc4cc(C)[nH]c4c3)c2)n1 [Compound 156]

IC50 [1]: 0.1 to 1 µM
IC50 (EHMT1): < 0.1 µM
SMILES: CNc1cc(C)nc(Nc2ccc(OC)c(-c3cc4ccncc4[nH]3)c2)n1 [Compound 157, N2-(4-methoxy-3-(1H-pyrrolo[2,3-c]pyridin-2-yl)phenyl)-N4,6-dimethylpyrimidine-2,4-diamine]

IC50 [1]: 0.1 to 1 µM
IC50 (EHMT1): < 0.1 µM
SMILES: CNc1cc(C)nc(Nc2ccc(OC)c(-c3cc4cnccc4n3C)c2)n1 [Compound 158]

IC50 [1]: 0.1 to 1 µM
IC50 (EHMT1): < 0.1 µM
SMILES: CNCc1cn(-c2cc(Nc3nc(C)cc(NC)n3)ccc2OC)nn1 [Compound 159, N2-(4-methoxy-3-(4-((methylamino)methyl)-1H-1,2,3-triazol-1-yl)phenyl)-N4,6-dimethylpyrimidine-2,4-diamine]

IC50 [1]: 0.1 to 1 µM
IC50 (EHMT1): < 0.1 µM
SMILES: CNc1cc(C)nc(Nc2ccc(OC)c(-n3cc(CN(C)C)c(C)n3)c2)n1 [Compound 160]

IC50 [1]: 1 to 10 µM
IC50 (EHMT1): 1 to 10 µM
SMILES: CNc1nc2cc(-n3cc(CN(C)C)nn3)c(OC)cc2n1C [Compound 163]

IC50 [1]: 0.1 to 1 µM
IC50 (EHMT1): 0.1 to 1 µM
SMILES: CNc1cc(C)nc(Nc2ccc(OC)c(-n3cc(C(C)NC)nn3)c2)n1 (centres unmarked) [Compound 164]

IC50 [1]: 0.1 to 1 µM
IC50 (EHMT1): < 0.1 µM
SMILES: CNc1ccnc(Nc2ccc(OC)c(-n3cnc(CN(C)C)c3)c2)n1 [Compound 170]

IC50 [1]: 0.1 to 1 µM
IC50 (EHMT1): < 0.1 µM
SMILES: CNc1ccnc(Nc2ccc(OC)c(-n3cc(CN(C)C)nn3)c2)n1 [Compound 171]

IC50 [1]: 0.1 to 1 µM
IC50 (EHMT1): < 0.1 µM
SMILES: CNc1ccnc(Nc2ccc(OC)c(-c3cc4[nH]ccc4cn3)c2)n1 [Compound 175, N2-(4-methoxy-3-(1H-pyrrolo[3,2-c]pyridin-6-yl)phenyl)-N4-methylpyrimidine-2,4-diamine]

IC50 [1]: 0.1 to 1 µM
IC50 (EHMT1): < 0.1 µM
SMILES: CNCc1cnn(-c2cc(Nc3nccc(NC)n3)ccc2OC)c1 [Compound 181, N2-(4-methoxy-3-(4-((methylamino)methyl)-1H-pyrazol-1-yl)phenyl)-N4-methylpyrimidine-2,4-diamine]

IC50 [1]: 0.1 to 1 µM
IC50 (EHMT1): < 0.1 µM
SMILES: CNCc1cnn(-c2cc3c(cc2OC)C2(CCC2)C(N)=N3)c1 [Compound 186]

Reference: patent US20220235065A1 (Epizyme, Inc., priority 2016, published 2022)
